Experimental data as given in PubChem BioAssay AID2060486 (Molecular Pharmacology Branch, DTP, NCI, 2025).
pIC50: −log10 of the molar value.

Test system: IGROV1 complex spheroids (HUVEC, MSC), viability % test/control
Experiment: Anticancer human tumor IGROV1 cell line growth inhibition [GQUAD];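 also: spheroids exposed to compounds for 7 days before readout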;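 as to viability, T/C: 100% = DMSO vehicle control viability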
Details: for pIC50: curve of first compound; for viability, T/C: stronger effect = lower value
Summary of the method: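 Multi-cell-type spheroids of tumor cells with HUVEC and mesenchymal stem cells, treated with drug combinations. Concentrations descend in half-log steps from near clinical Cmax, or from 10 microM where Cmax is unknown; viability read-out.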

[1] = second compound 0.0316 µM, first compound 0.0316 µM
[2] = second compound 0.0316 µM, first compound 0.1 µM
[3] = second compound 0.0316 µM, first compound 0.316 µM
[4] = second compound 0.0316 µM, first compound 1 µM
[5] = second compound 0.0316 µM, first compound 3.16 µM
[6] = second compound 0.0316 µM, first compound 10 µM
[7] = second compound 0.1 µM, first compound 0.0316 µM
[8] = second compound 0.1 µM, first compound 0.1 µM
[9] = second compound 0.1 µM, first compound 0.316 µM
[10] = second compound 0.1 µM, first compound 1 µM
[11] = second compound 0.1 µM, first compound 3.16 µM
[12] = second compound 0.1 µM, first compound 10 µM
[13] = second compound 0.316 µM, first compound 0.0316 µM
[14] = second compound 0.316 µM, first compound 0.1 µM
[15] = second compound 0.316 µM, first compound 0.316 µM
[16] = second compound 0.316 µM, first compound 1 µM
[17] = second compound 0.316 µM, first compound 3.16 µM
[18] = second compound 0.316 µM, first compound 10 µM
[19] = second compound 1 µM, first compound 0.0316 µM
[20] = second compound 1 µM, first compound 0.1 µM
[21] = second compound 1 µM, first compound 0.316 µM
[22] = second compound 1 µM, first compound 1 µM
[23] = second compound 1 µM, first compound 3.16 µM
[24] = second compound 1 µM, first compound 10 µM
[25] = second compound 3.16 µM, first compound 0.0316 µM
[26] = second compound 3.16 µM, first compound 0.1 µM
[27] = second compound 3.16 µM, first compound 0.316 µM
[28] = second compound 3.16 µM, first compound 1 µM
[29] = second compound 3.16 µM, first compound 3.16 µM
[30] = second compound 3.16 µM, first compound 10 µM
[31] = second compound 10 µM, first compound 0.0316 µM
[32] = second compound 10 µM, first compound 0.1 µM
[33] = second compound 10 µM, first compound 0.316 µM
[34] = second compound 10 µM, first compound 1 µM
[35] = second compound 10 µM, first compound 3.16 µM
[36] = second compound 10 µM, first compound 10 µM

COc1cc(C2c3cc4c(cc3C(OC3OC5COC(C)OC5C(O)C3O)C3COC(=O)C23)OCO4)cc(OC)c1O (centres undefined) + Cc1cnc(CNC(=O)c2c(=O)c3ccc(N4CCCN(C)CC4)nc3n3c2sc2ccccc23)cn1
pIC50 (second compound 0.0316 µM): 7.25
pIC50 (second compound 0.1 µM): > 7.50
pIC50 (second compound 0.316 µM): > 7.50
pIC50 (second compound 1 µM): > 7.50
pIC50 (second compound 3.16 µM): > 7.50
pIC50 (second compound 10 µM): > 7.50
viability, T/C [1]: 67.3%
viability, T/C [2]: 32.8%
viability, T/C [3]: 16.3%
viability, T/C [4]: 13.5%
viability, T/C [5]: 8.96%
viability, T/C [6]: 4.09%
viability, T/C [7]: 37.6%
viability, T/C [8]: 27.9%
viability, T/C [9]: 16%
viability, T/C [10]: 10.6%
viability, T/C [11]: 8.64%
viability, T/C [12]: 5.71%
viability, T/C [13]: 25.1%
viability, T/C [14]: 19%
viability, T/C [15]: 14.4%
viability, T/C [16]: 8.91%
viability, T/C [17]: 8.97%
viability, T/C [18]: 5.79%
viability, T/C [19]: 12.8%
viability, T/C [20]: 13.7%
viability, T/C [21]: 13.6%
viability, T/C [22]: 11%
viability, T/C [23]: 7.71%
viability, T/C [24]: 6.49%
viability, T/C [25]: 9.53%
viability, T/C [26]: 11.8%
viability, T/C [27]: 9.99%
viability, T/C [28]: 9.79%
viability, T/C [29]: 9.02%
viability, T/C [30]: 5.67%
viability, T/C [31]: 9.66%
viability, T/C [32]: 11%
viability, T/C [33]: 10.7%
viability, T/C [34]: 9.61%
viability, T/C [35]: 9.67%
viability, T/C [36]: 6.31%

Cc1cccc(N(C)C(=O)C2C(O)CCN2c2nc(C)cc(C(F)(F)F)c2C#N)c1 (centres undefined) + Cc1cnc(CNC(=O)c2c(=O)c3ccc(N4CCCN(C)CC4)nc3n3c2sc2ccccc23)cn1
pIC50 (second compound 0.0316 µM): < 5.00
pIC50 (second compound 0.1 µM): > 7.50
pIC50 (second compound 0.316 µM): > 7.50
pIC50 (second compound 1 µM): > 7.50
pIC50 (second compound 3.16 µM): > 7.50
pIC50 (second compound 10 µM): > 7.50
viability, T/C [1]: 66.2%
viability, T/C [2]: 68%
viability, T/C [3]: 65.6%
viability, T/C [4]: 42%
viability, T/C [5]: 76.5%
viability, T/C [6]: 63%
viability, T/C [7]: 45.2%
viability, T/C [8]: 38.2%
viability, T/C [9]: 38.2%
viability, T/C [10]: 31.6%
viability, T/C [11]: 39.6%
viability, T/C [12]: 34.5%
viability, T/C [13]: 24.8%
viability, T/C [14]: 23.1%
viability, T/C [15]: 20.6%
viability, T/C [16]: 26.8%
viability, T/C [17]: 29.3%
viability, T/C [18]: 17.3%
viability, T/C [19]: 12.8%
viability, T/C [20]: 9.76%
viability, T/C [21]: 20.4%
viability, T/C [22]: 14.9%
viability, T/C [23]: 21.1%
viability, T/C [24]: 17.1%
viability, T/C [25]: 11.1%
viability, T/C [26]: 11.2%
viability, T/C [27]: 13.9%
viability, T/C [28]: 12.8%
viability, T/C [29]: 13.4%
viability, T/C [30]: 10.1%
viability, T/C [31]: 8.57%
viability, T/C [32]: 9.75%
viability, T/C [33]: 7.75%
viability, T/C [34]: 10.5%
viability, T/C [35]: 14.8%
viability, T/C [36]: 11.7%
